Experimental findings from PubChem BioAssay (NCI) are described below.

Experiment in all cases: NCI tumour cell line growth inhibition, 48 h
Test [1] relates to A498 renal.
Test [2] concerns KM12 colon.
The test system of test [3] is UO-31 renal.
Test [4] deals with SF-268 CNS.
The test system of test [5] is SK-MEL-2 melanoma.
The subject of test [6] is SF-539 CNS.

Values joined by “and” are separate entries in the source; they are usually repeats but may differ in a detail not shown here. Equal values may be shown once.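 Following 48 hours of exposure in 96-well plates, responses at five concentrations were used to interpolate endpoints linearly. At the GI50, growth is halved. TGI marks complete inhibition of growth.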 Active and inactive are the calls of the source. Cut-off read from the data, not from the text of the source: active = GI50 below about 0.43 µM; inactive = the rest. Where a SMILES comes first, the peptide text is derived from it. Side-chain parts run from the residue outwards. The star is where a group is joined. Cbz = O=C(OCc1ccccc1)*; Boc = CC(C)(C)OC(=O)* Where only a bound is given, the exact number is not on record here.

In the case of `CC(=O)c1ccc2c3c1O[C@H]1c4[nH]c5ccccc5c4C[C@@]4(O)[C@@H](C2)N(CC2CC2)CC[C@]314`, the TGI in test [1] is 16.1 µM; in test [2], 37.6 µM; in test [3], 28.7 µM; in test [4], 28.8 µM; in test [5], 30.9 µM; in test [6], 29.3 µM.
`CC1(C)CN=CC(C)(OCc2ccccc2)C(=O)NC(C)(C)CN=CC(C)(OCc2ccccc2)C(=O)N1` (configuration not stated): the TGI in test [1], in test [2], in test [3], in test [4], in test [5] and in test [6] was above 10 µM each time.
Consider `COc1ccc(C2=NNC(c3cc4cc(Br)ccc4nc3Cl)C2)cc1` (configuration not stated), for which the TGI in test [1], in test [2], in test [3] and in test [5] was above 25 µM each time.
Regarding `O=c1c2cc(I)ccc2nc(SCc2nnco2)n1Cc1ccccc1`, the TGI in test [1] was above 100 µM; in test [2], above 100 µM; in test [3], 2.87 µM; in test [4] it was above 100 µM; in test [5] it was above 100 µM; in test [6], above 100 µM.
On to `CC1=CC(=O)/C(=C/n2c(=S)[nH]c3cc(C)ccc32)C(=O)O1`, for which the TGI in test [2], in test [3], in test [4], in test [5] and in test [6] was above 100 µM throughout.
In the case of `C[C@]12CC[C@H](O)CC1=CC[C@@H]1[C@@H]2CC[C@]2(C)C(=O)/C(=C/c3ccc([N+](=O)[O-])cc3)C[C@@H]12`, the TGI in test [1] is 30.4 µM; in test [2], above 100 µM; in test [3] it was 28 µM; in test [4], 21.5 µM; in test [5], 36.5 µM; in test [6], 20.9 µM.
Regarding `C=CCOCn1ccc(N)nc1=O`, the TGI in test [2], in test [3], in test [4] and in test [6] was above 100 µM throughout.
Take `CCOC(=O)C(NC(=O)CC)(Nc1ccc(S(=O)(=O)Nc2ccc(OC)nn2)cc1)C(F)(F)F` (configuration not stated): the TGI in test [1], in test [2], in test [3], in test [4], in test [5] and in test [6] was above 100 µM in each case.
For `O=C1CCC2(c3ccc(Cl)cc3)Nc3ncncc3N12` (configuration not stated), the TGI in test [2], in test [3], in test [4], in test [5] and in test [6] was above 10 µM each time.
As for `CCC(=O)N1C(=O)C(CC)(CC)C(=O)N1C(=O)CC`, the TGI in test [2], in test [3], in test [4] and in test [5] was above 100 µM each time.
`CCN(CC)C1Oc2cc3c(cc2C(c2cccc(OC)c2O)C1C)OCO3` (configuration not stated): the TGI in test [1] was 7.24 µM; in test [2], 16.6 µM; in test [3], 49.5 µM; in test [4], above 54 µM; in test [5] it was 27.4 µM; in test [6] it was 6.3 µM.
`OC1(c2ccc(Cl)cc2)c2c(c3ccccc3c3ccccc23)C2=NCCN21` (configuration not stated): the TGI is 43.7 µM in test [1]; 47.8 µM in test [2]; 24.6 µM in test [3]; 24.9 µM in test [4]; 36.7 µM in test [5]; 24.5 µM in test [6].
For `COc1cc2[nH]c(=O)c3cc(C)cc4c(Cl)nc(c1OC)c2c43`, the TGI is above 100 µM in test [2]; above 100 µM in test [3]; 84.8 µM in test [4]; above 100 µM in test [5]; above 100 µM in test [6].
Consider `NC1=Nc2ccccc2Sc2nc3ccccc3n21`, for which the TGI in test [2] was above 100 µM; in test [3], 40.9 µM; in test [4], above 100 µM; in test [6], above 100 µM.
Consider `Cn1c(COC(=O)NC2CCCCC2)c(COC(=O)NC2CCCCC2)c2ccc3cc(C=O)ccc3c21`, for which the TGI in test [1], in test [2], in test [3], in test [4], in test [5] and in test [6] was above 100 µM throughout.
Take `Cc1c2oc3c(C)cc(F)c(C(=O)NC4C(=O)NC(C(C)C)C(=O)N5CCCC5C(=O)N(C)CC(=O)N(C)C(C(C)C)C(=O)OC4C)c3nc-2c(C(=O)NC2C(=O)NC(C(C)C)C(=O)N3CCCC3C(=O)N(C)CC(=O)N(C)C(C(C)C)C(=O)OC2C)c(N)c1=O` (configuration not stated): the values for the GI50 in test [1] and in test [3] were 0.85 µM and 0.458 µM, respectively. For the same compound, the TGI in test [1] is 0.902 µM; in test [3] it was 4.65 µM; in test [4], 4.21 µM and 15.3 µM; in test [5], 0.663 µM; in test [6], 1.41 µM and 0.727 µM.
For `COc1cc(C2c3cc(OC)c(OC)c(O)c3C(=O)C3CCC(=O)N32)cc(OC)c1OC` (configuration not stated), the TGI in test [1], in test [2], in test [4], in test [5] and in test [6] was above 100 µM throughout.
With `Cc1c2cccc-2c(OCCOC(=O)n2ccnc2)cc2c1[nH]c1ccccc12`, the TGI in test [1] turned out to be 21 µM; in test [2], 4.65 µM; in test [3], 3.39 µM; in test [4] it was 5.8 µM; in test [5] it was 5.48 µM.
Consider `Cc1ccc2c(=O)cc(Cc3csc4ccccc34)[nH]c2n1`, for which the TGI in test [1] is above 100 µM; in test [2], above 100 µM; in test [3] it was 80.1 µM; in test [4], above 100 µM; in test [5], above 100 µM.
Take `CCn1c(=O)c2c3ccc(OC)cc3[nH]c2c2ccc(OC)cc21`: the TGI in test [1], in test [2], in test [3], in test [4] and in test [6] was above 100 µM in each case.
For `CC(C)=CCC[C@@H](C)C1=CC(=O)C(C)=C(O)C1=O`, the TGI came out at 34.9 µM in test [1]; 16.1 µM in test [2]; 13.5 µM in test [3]; 24.3 µM in test [4]; 26.3 µM in test [5].
With `COc1ccc(-c2nc(-c3cnccn3)n(Cc3ccccc3)n2)cc1`, the TGI in test [2], in test [3], in test [4] and in test [6] was above 100 µM each time.
Regarding `COc1cc(O)cc(O)c1C(=O)CC(Cl)(Cl)Cl`, the TGI in test [1], in test [2], in test [3], in test [4] and in test [6] was above 100 µM in each case.
Consider `S=C(N/N=C(\C(=N/NC(=S)N1CCCCC1)c1ccccn1)c1ccccn1)N1CCCCC1`, for which the TGI is 90.1 µM in test [1]; above 100 µM in test [2]; above 100 µM in test [3]; above 100 µM in test [4]; above 100 µM in test [6].
Take `O=C1CC(C(COCc2ccccc2)OCc2ccccc2)CC(=O)N1` (configuration not stated): the TGI in test [2], in test [3], in test [4] and in test [6] was above 100 µM each time.
For `O=c1[nH]c(=O)n(COCc2ccccc2)c2ccccc12`, the TGI in test [1], in test [2], in test [3], in test [5] and in test [6] was above 100 µM throughout.
`CCN(CC)c1ccc2cc(C(N)=O)c(=Nc3ccc(F)cc3)oc2c1`: the TGI in test [1], in test [2], in test [3], in test [4] and in test [5] was above 100 µM throughout.
Take `N#CCc1nc2cc(C(F)(F)F)ccc2s1`: the TGI in test [1], in test [2], in test [4] and in test [6] was above 100 µM throughout.
With `O=C1CCCCN1C(=O)c1ccc([N+](=O)[O-])cc1`, the TGI in test [1], in test [2], in test [3], in test [4] and in test [6] was above 100 µM in each case.
With `NCCS(=O)(=O)O`, the TGI in test [2], in test [3], in test [4], in test [5] and in test [6] was above 100 µM each time.
With `C[N+]1([O-])[C@H]2CC(OC(=O)[C@H](CO)c3ccccc3)C[C@H]1[C@H]1O[C@H]12` (some centres not stated), the TGI in test [1], in test [2], in test [3], in test [5] and in test [6] was above 100 µM in each case.
`O=S1(=O)OCCCOS(=O)(=O)C1(Br)Br`: the TGI in test [2], in test [3], in test [4] and in test [5] was above 100 µM throughout.
As to `CC(C)C1=C(Cc2ccccc2)C(=O)O/C1=C\c1ccc(O)c(Cl)c1`, the TGI in test [1] came out at 31.4 µM; in test [2], 32 µM; in test [3], 27.5 µM; in test [4] it was 30.4 µM; in test [6], 33.2 µM.
In the case of `COc1cc([C@@H]2c3cc4c(cc3[C@@H](c3c(O)cc(O)c5c3O[C@H](c3ccc(O)c(O)c3)[C@H](OC(=O)c3cc(O)c(O)c(O)c3)C5)[C@H]3COC(=O)[C@H]23)OCO4)cc(OC)c1O`, the TGI was above 100 µM in test [1]; above 100 µM in test [2]; above 100 µM in test [4]; above 100 µM in test [5]; 60.1 µM in test [6].
On to `CC(C)(C)OC(=O)NC(CCCCNC(=O)CNC(=O)OCc1ccccc1)C(=O)NC(CCCCNC(=O)CNC(=O)OCc1ccccc1)C(=O)NC(CCCCNC(=O)CNC(=O)OCc1ccccc1)C(=O)NC(CCCCNC(=O)CNC(=O)OCc1ccccc1)C(=O)O` (configuration not stated) (Boc-K([Gly-Cbz])K([Gly-Cbz])K([Gly-Cbz])K([Gly-Cbz])-OH; configuration not given here), for which the TGI in test [3], in test [4] and in test [5] was above 100 µM throughout.
As to `CC1CCOc2ccc(cc2)C=Nc2ccc(cc2)-c2ccc(cc2)N=Cc2ccc(cc2)OCC1` (configuration not stated), the TGI in test [2], in test [3], in test [4], in test [5] and in test [6] was above 100 µM in each case.
As for `N#Cc1c(N2CCCC2)nsc1Nc1ccc(F)cc1`, the TGI in test [1], in test [2], in test [4], in test [5] and in test [6] was above 100 µM throughout.
For `OC(C1CCCCCCCCCC1)C(O)C1CCCCCCCCCC1` (configuration not stated), the TGI in test [2], in test [3], in test [4], in test [5] and in test [6] was above 100 µM in each case.
Regarding `O=S(c1ccc(Cl)cc1)c1ccccc1C1=NCCN1` (configuration not stated), the TGI in test [2], in test [3], in test [4] and in test [5] was above 100 µM throughout.
As to `N#Cc1ccc2[nH]c3c(c2c1)CC(=O)Nc1ccccc1-3`, the TGI in test [1], in test [3], in test [4], in test [5] and in test [6] was above 100 µM in each case.
Turning to `O=P(O)(O)CN1CCNCCN(CP(=O)(O)O)CCN(CP(=O)(O)O)CCNCC1`, the result in test [1], in test [3], in test [4] and in test [6] was inactive.
Turning to `CC(=O)N1C(Nc2cccc3nc(C)ccc23)CCN1c1ccccc1` (configuration not stated), the TGI in test [3], in test [4], in test [5] and in test [6] was above 10 µM in each case.
For `CN(/N=C/c1ccc(Cl)cc1)C1=NCCCCN1`, the TGI in test [1], in test [2], in test [3], in test [4] and in test [6] was above 100 µM each time.
On to `C1=CN2C[n+]3ccc4ccccc4c3N=C2c2ccccc21`, for which the TGI in test [2] stood at 10.7 µM; in test [3], 69.3 µM; in test [4], 8.35 µM; in test [5], 9.33 µM; in test [6], 14.8 µM.
